How the values were obtained:
[1] = system: PrP^Sc in GT1 cells chronically infected with RML prion (ScGT1); type: cell-based, mouse; details: drug 20 μM, 4 days, vs vehicle control, densitometry normalized to β-actin
[2] = system: PrP^Sc in GT1 cells chronically infected with 22L prion strain (ScGT1 22L); type: cell-based, mouse; details: ScGT1 cells infected with 22L prion strain, drug 20 μM, 4 days, vs vehicle control
[3] = system: PrP^Sc in N2a cells chronically infected with RML prion strain (ScN2a); type: cell-based, mouse
[4] = system: N2a, ScN2a, GT1, ScGT1 cells

Compound | reduction of PrP^Sc accumulation/levels [1] | reduction of PrP^Sc levels [2] [%] | reduction in PrP^Sc levels ([3]; RML-infected ScN2a cells, drug 20 μM, 4 days, vs vehicle control) [%] | PrP^Sc reduction with compound dissolved in different drug vehicles ([3]; ScN2a cells, vehicles PBS, H2O, NaCl and DMSO) | citotoxicity assessment [4]
Nc1c(C(=O)c2ccc[nH]2)cnn1-c1ccc(F)cc1 [Compound G] | about 50% | – | – | – | –
Nc1c(C(=O)C2CCNCC2)cnn1-c1ccc(OC(F)(F)F)cc1 [Compound 5, [5-Amino-1-(4-trifluoromethoxy-phenyl)-1H-pyrazol-4-yl]-piperidin-4-yl-methanone] | about 60% | 35 | 60 | able to reduce PrP^Sc in all drug vehicles tested | –
Nc1c(C(=O)c2c[nH]c3ccccc23)cnn1-c1ccccc1 [Compound 3, (5-Amino-1-phenyl-1H-pyrazol-4-yl)-(1H-indol-3-yl)-methanone] | – | – | – | – | discarded

Source: US20210093626A1 (priority 2018, published 2021)
